Assay [1] addresses T1, recombinant human ACC1 (rhACC1) (Homo sapiens, UniProt Q13085, DEL44-44).
T1 construct: infected with recombinant baculovirus containing full length human ACC1 cDNA; made in house; host or cells: SF9 insect cells (baculovirus)
Description: recombinant hACC1 Transcreener assay (ADP detection FP). It is filed as biochemical. As to conditions: recombinant hACC1 Transcreener assay, 50 μM ATP, minimum of n=3; read-out: hACC1. Here is the method:
For example direct inhibition of ACC activity, for the compound of Formula (1) was determined using preparations of recombinant human ACC1 (rhACC1) and recombinant human ACC2 (rhACC2).
[1] Preparation of rhACC1. Two liters of SF9 cells, infected with recombinant baculovirus containing full length human ACC1 cDNA, were suspended in ice-cold lysis buffer (25 mM Tris, pH 7.5; 150 mM NaCl; 10% glycerol; 5 mM imidazole (EMD Bioscience; Gibbstown, N.J.); 2 mM TCEP (BioVectra; Charlottetown, Canada); Benzonase nuclease (10000 U/100 g cell paste; Novagen; Madison, Wis.); EDTA-free protease inhibitor cocktail (1 tab/50 mL; Roche Diagnostics; Mannheim, Germany). Cells were lysed by 3 cycles of freeze-thaw and centrifuged at 40,000×g for 40 minutes (4° C.). Supernatant was directly loaded onto a HisTrap FF crude column (GE Healthcare; Piscataway, N.J.) and eluted with an imidazole gradient up to 0.5 M over 20 column volumes (CV). ACC1-containing fractions were pooled and diluted 1:5 with 25 mM Tris, pH 7.5, 2 mM TCEP, 10% glycerol and direct loaded onto a CaptoQ (GE Healthcare) column and eluted with an NaCl gradient up to 1 M over 20 CV's. Phosphate groups were removed from purified ACC1 by incubation with lambda phosphatase (100 U/10 μM target protein; New England Biolabs; Beverly, Mass.) for 14 hours at 4° C.; okadaic acid was added (1 μM final concentration; Roche Diagnostics) to inhibit the phosphatase. Purified ACC1 was exchanged into 25 mM Tris, pH 7.5, 2 mM TCEP, 10% glycerol, 0.5 M NaCl by 6 hour dialysis at 4° C. Aliquots were prepared and frozen at −80° C.
[2] […] The final conditions for the assay were 50 mM HEPES, pH 7.2, 10 mM MgCl2, 7.5 mM tripotassium citrate, 2 mM DTT, 0.1 mg/mL BSA, 30 μM acetyl-CoA, 50 μM ATP, and 10 mM KHCO3. Typically, a 10 μl reaction was run for 120 min at 25° C., and 10 μl of Transcreener stop and detect buffer was added and the combination incubated at room temp for an additional 1 hour.
All of the examples in both assays were run with a minimum of n=3.

Assay [2] addresses T2, recombinant human ACC2 (rhACC2) (Homo sapiens, UniProt O00763, V2141I).
T2 construct: a full length Cytomax clone of ACC2 was purchased from Cambridge Bioscience Limited; made in house; host or cells: CHO cells (tetracycline-inducible, pcDNA5 FRT TO-TOPO)
Description: recombinant hACC2 Transcreener assay (ADP detection FP). Format: biochemical. Particulars: 50 μM ATP, minimum of n=3. How it is done:
For example direct inhibition of ACC activity, for the compound of Formula (1) was determined using preparations of recombinant human ACC1 (rhACC1) and recombinant human ACC2 (rhACC2). Representative sequences of the recombinant human ACC1 and ACC2 that can be used in the assay are provided in FIG. 1 (SEQ ID NO. 1) and FIG. 2 (SEQ. ID NO. 2), respectively.
[3] Preparation of rhACC2. Human ACC2 inhibition was measured using purified recombinant human ACC2 (hrACC2). Briefly, a full length Cytomax clone of ACC2 was purchased from Cambridge Bioscience Limited and was sequenced and subcloned into PCDNA5 FRT TO-TOPO (Invitrogen, Carlsbad, Calif.). The ACC2 was expressed in CHO cells by tetracycline induction and harvested in 5 liters of DMEM/F12 with glutamine, biotin, hygromycin and blasticidin with 1 μg/mL tetracycline (Invitrogen, Carlsbad, Calif.). The conditioned medium containing ACC2 was then applied to a Softlink Soft Release Avidin column (Promega, Madison, Wis.) and eluted with 5 mM biotin. 4 mgs of ACC2 were eluted at a concentration of 0.05 mg/mL (determined by A280) with an estimated purity of 95% ([…]). The purified ACC2 was dialyzed in 50 mM Tris, 200 mM NaCl, 4 mM DTT, 2 mM EDTA, and 5% glycerol. The pooled protein was frozen and stored at −80° C., with no loss of activity upon thawing. For measurement of ACC2 activity and assessment of ACC2 inhibition, test compounds were dissolved in DMSO and added to the rhACC2 enzyme as a 5× stock with a final DMSO concentration of 1%.
[4] Measurement of human ACC2 inhibition. hACC2 was assayed in a Costar #3676 (Costar, Cambridge, Mass.) 384-well plate using the Transcreener ADP detection FP assay kit (Bellbrook Labs, Madison, Wis.) using the manufacturer's recommended conditions for a 50 uM ATP reaction. The final conditions for the assay were 50 mM HEPES, pH 7.2, 5 mM MgCl2, 5 mM tripotassium citrate, 2 mM DTT, 0.1 mg/mL BSA, 30 μM acetyl-CoA, 50 μM ATP, and 8 mM KHCO3. Typically, a 10 μl reaction was run for 50 min at 25° C., and 10 μl of Transcreener stop and detect buffer was added and the combination incubated at room temp for an additional 1 hour. The data was acquired on an Envision Fluorescence reader (Perkinelmer) using a 620 excitation Cy5 FP general dual mirror, 620 excitation Cy5 FP filter, 688 emission (S) and a 688 (P) emission filter.
The results using the recombinant hACC1 and recombinant hACC2 Transcreener assays described above are summarized in the table below for the Compounds of Formula (I) exemplified in the Examples above. All of the examples in both assays were run with a minimum of n=3.

pIC50: −log10 of the molar value.

T2 sequence (O00763 whole entry V2141I): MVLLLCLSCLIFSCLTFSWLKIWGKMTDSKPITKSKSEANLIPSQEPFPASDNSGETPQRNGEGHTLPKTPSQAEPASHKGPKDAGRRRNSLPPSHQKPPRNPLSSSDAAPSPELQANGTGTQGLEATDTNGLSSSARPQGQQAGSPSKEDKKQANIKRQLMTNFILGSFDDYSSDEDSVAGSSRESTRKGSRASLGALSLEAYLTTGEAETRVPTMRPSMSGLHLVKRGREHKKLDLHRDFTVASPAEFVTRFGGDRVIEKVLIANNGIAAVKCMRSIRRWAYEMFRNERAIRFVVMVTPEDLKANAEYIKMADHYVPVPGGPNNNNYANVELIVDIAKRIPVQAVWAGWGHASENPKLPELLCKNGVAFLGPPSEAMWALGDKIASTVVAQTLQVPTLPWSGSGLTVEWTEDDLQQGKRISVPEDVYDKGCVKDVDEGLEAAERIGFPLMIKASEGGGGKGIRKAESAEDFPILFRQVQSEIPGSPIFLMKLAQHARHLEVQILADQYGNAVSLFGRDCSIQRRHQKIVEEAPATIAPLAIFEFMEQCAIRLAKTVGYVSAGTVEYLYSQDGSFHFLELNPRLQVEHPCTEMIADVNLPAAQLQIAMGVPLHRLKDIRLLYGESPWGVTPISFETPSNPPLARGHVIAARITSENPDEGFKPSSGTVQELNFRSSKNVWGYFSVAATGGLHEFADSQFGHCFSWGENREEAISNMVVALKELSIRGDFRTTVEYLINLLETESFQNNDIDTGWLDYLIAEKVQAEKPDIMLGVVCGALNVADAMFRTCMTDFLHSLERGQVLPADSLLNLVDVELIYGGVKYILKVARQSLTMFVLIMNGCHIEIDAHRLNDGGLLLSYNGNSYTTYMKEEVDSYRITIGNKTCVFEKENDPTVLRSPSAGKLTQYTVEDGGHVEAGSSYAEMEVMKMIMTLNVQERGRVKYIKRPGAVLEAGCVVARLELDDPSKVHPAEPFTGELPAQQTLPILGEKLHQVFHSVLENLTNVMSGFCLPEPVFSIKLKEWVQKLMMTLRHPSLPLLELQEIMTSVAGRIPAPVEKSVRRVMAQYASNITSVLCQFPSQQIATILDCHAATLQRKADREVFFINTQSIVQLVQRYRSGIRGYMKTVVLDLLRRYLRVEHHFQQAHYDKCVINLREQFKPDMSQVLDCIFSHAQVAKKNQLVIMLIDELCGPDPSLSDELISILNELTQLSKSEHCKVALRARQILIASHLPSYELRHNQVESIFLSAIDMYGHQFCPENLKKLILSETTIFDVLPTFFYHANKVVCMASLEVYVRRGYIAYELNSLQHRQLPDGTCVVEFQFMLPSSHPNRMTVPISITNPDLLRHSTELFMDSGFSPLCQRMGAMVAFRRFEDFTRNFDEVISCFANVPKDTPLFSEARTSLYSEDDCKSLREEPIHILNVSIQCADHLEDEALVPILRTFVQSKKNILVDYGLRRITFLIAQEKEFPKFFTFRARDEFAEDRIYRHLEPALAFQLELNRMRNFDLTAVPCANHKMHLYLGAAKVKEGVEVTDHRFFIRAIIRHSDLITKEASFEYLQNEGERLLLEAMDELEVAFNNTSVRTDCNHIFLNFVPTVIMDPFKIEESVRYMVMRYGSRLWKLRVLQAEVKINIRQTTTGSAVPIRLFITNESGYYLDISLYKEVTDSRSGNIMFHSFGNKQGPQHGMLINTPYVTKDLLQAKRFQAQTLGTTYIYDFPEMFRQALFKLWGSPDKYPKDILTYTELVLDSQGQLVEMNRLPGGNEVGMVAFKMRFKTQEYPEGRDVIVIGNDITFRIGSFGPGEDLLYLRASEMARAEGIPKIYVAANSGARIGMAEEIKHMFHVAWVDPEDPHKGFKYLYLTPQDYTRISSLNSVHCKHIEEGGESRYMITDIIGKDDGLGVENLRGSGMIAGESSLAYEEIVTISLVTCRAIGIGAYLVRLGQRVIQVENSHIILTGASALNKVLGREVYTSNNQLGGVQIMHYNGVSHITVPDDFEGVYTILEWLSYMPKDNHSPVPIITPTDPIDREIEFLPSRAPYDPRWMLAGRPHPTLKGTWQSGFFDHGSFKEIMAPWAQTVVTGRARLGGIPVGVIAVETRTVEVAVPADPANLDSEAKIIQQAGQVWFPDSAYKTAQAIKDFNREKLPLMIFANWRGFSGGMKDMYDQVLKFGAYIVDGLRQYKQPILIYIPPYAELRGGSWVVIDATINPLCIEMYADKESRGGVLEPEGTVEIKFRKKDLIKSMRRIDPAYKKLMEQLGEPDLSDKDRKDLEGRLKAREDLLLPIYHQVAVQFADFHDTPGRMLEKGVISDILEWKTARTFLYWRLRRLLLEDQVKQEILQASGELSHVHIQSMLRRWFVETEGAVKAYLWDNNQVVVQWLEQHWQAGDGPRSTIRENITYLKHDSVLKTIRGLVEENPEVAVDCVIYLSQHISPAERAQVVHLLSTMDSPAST

As to “4-{5-[(1-tert-butyl-7-oxo-1,4,6,7-tetrahydro-1′H-spiro[indazole-5,4′-piperidin]-1′-yl)carbonyl]-6-(ethylamino)pyridin-2-yl}benzoic acid [Example 13]”, the results for the pIC50 in assay [1] and in assay [2] were 6.66 and 6.84, respectively.

Regarding `CC(C)(C)n1ncc2c1C(=O)CC1(CCN(C(=O)c3ccc(-c4cccc(-c5nnn[nH]5)c4)cc3)CC1)C2` [Example 49, 1-tert-butyl-1′-{[3′-(1H-tetrazol-5-yl)biphenyl-4-yl]carbonyl}-1,4-dihydrospiro[indazole-5,4′-piperidin]-7(6H)-one], the pIC50 was 7.26 in assay [1] and 7.61 in assay [2].

With “3-{5-[(1-isopropyl-7-oxo-1,4,6,7-tetrahydro-1′H-spiro[indazole-5,4′-piperidin]-1′-yl)carbonyl]-6-(methylamino)pyridin-2-yl}benzoic acid [Example 5]”, the pIC50 in assay [1] is 6.79; in assay [2], 6.94.

With `CNc1ncc(-c2ccc(C(=O)O)cc2)cc1C(=O)N1CCC2(CC1)CC(=O)c1c(cnn1C(C)C)C2` [Example 44, 4-{5-[(1-isopropyl-7-oxo-1,4,6,7-tetrahydro-1′H-spiro[indazole-5,4′-piperidin]-1′-yl)carbonyl]-6-(methylamino)pyridin-3-yl}benzoic acid], the results for the pIC50 in assay [1] and in assay [2] were 7.46 and 7.44, respectively.

Regarding `CC(C)n1ncc2c1C(=O)CC1(CCN(C(=O)c3cc4c(-c5ccc(C(=O)O)cc5)ncnc4[nH]3)CC1)C2` [Example 34, 4-{6-[(1-isopropyl-7-oxo-1,4,6,7-tetrahydro-1′H-spiro[indazole-5,4′-piperidin]-1′-yl)carbonyl]-7H-pyrrolo[2,3-d]pyrimidin-4-yl}benzoic acid], the pIC50 in assay [1] was 7.25; in assay [2] it was 7.37.

Take `CC(C)n1ncc2c1C(=O)CC1(CCN(C(=O)c3cc(-c4cccc(C(=O)O)c4)nc(N(C)C)c3)CC1)C2` [Example 32, 3-{6-(dimethylamino)-4-[(1-isopropyl-7-oxo-1,4,6,7-tetrahydro-1′H-spiro[indazole-5,4′-piperidin]-1′-yl)carbonyl]pyridin-2-yl}benzoic acid]: the pIC50 is 7.50 in assay [1] and 7.90 in assay [2].

With `CNc1nc(-c2cccc(C(=O)O)c2)ccc1C(=O)N1CCC2(CC1)CC(=O)c1c(cnn1C(C)(C)C)C2` [Example 4, 3-{5-[(1-tert-butyl-7-oxo-1,4,6,7-tetrahydro-1′H-spiro[indazole-5,4′-piperidin]-1′-yl)carbonyl]-6-(methylamino)pyridin-2-yl}benzoic acid], the pIC50 in assay [1] is 6.94; in assay [2], 7.28.

`CC(C)n1ncc2c1C(=O)CC1(CCN(C(=O)c3cc4c(-c5cccc(C(=O)O)c5)cccc4[nH]3)CC1)C2` [Example 15, 3-{2-[(1-isopropyl-7-oxo-1,4,6,7-tetrahydro-1′H-spiro[indazole-5,4′-piperidin]-1′-yl)carbonyl]-1H-indol-4-yl}benzoic acid]: the pIC50 was 8.21 in assay [1] and 8.10 in assay [2].

As for `CC(C)(C)n1ncc2c1C(=O)CC1(CCN(C(=O)c3cc(C(=O)O)cc(-c4ncco4)c3)CC1)C2` [Example 21, 3-[(1-tert-butyl-7-oxo-1,4,6,7-tetrahydro-1′H-spiro[indazole-5,4′-piperidin]-1′-yl)carbonyl]-5-(1,3-oxazol-2-yl)benzoic acid], the pIC50 in assay [1] was 6.20; in assay [2], 6.29.

`CC(C)n1ncc2c1C(=O)CC1(CCN(C(=O)c3cc(-c4cccc(C(=O)O)c4)c4cc[nH]c4c3)CC1)C2` [Example 39, 3-{6-[(1-isopropyl-7-oxo-1,4,6,7-tetrahydro-1′H-spiro[indazole-5,4′-piperidin]-1′-yl)carbonyl]-1H-indol-4-yl}benzoic acid]: the pIC50 was 7.54 in assay [1] and 7.53 in assay [2].

With `CC(C)n1ncc2c1C(=O)CC1(CCN(C(=O)c3cc4c(-c5ccc(C(=O)O)cc5)nccc4[nH]3)CC1)C2` [Example 30, 4-{2-[(1-isopropyl-7-oxo-1,4,6,7-tetrahydro-1′H-spiro[indazole-5,4′-piperidin]-1′-yl)carbonyl]-1H-pyrrolo[3,2-c]pyridin-4-yl}benzoic acid], the pIC50 was 7.79 in assay [1] and 7.73 in assay [2].

Take `CC(C)n1ncc2c1C(=O)CC1(CCN(C(=O)c3cc(-c4cccc(C(=O)O)c4)[nH]c(=O)c3)CC1)C2` [Example 3, 3-(4-(1-isopropyl-7-oxo-1,4,6,7-tetrahydrospiro[indazole-5,4′-piperidine]-1′-ylcarbonyl)-6-oxo-1,6-dihydropyridin-2-yl)benzoic acid]: the pIC50 is 5.27 in assay [1] and 5.65 in assay [2].

As for `CC(C)Nc1nc(-c2ccc(C(=O)O)cc2)ccc1C(=O)N1CCC2(CC1)CC(=O)c1c(cnn1C(C)(C)C)C2` [Example 24, 4-{5-[(1-tert-butyl-7-oxo-1,4,6,7-tetrahydro-1′H-spiro[indazole-5,4′-piperidin]-1′-yl)carbonyl]-6-(isopropylamino)pyridin-2-yl}benzoic acid], the pIC50 in assay [1] was 5.50; in assay [2], 6.25.

With `CC(C)Nc1nc(-c2ccc(C(=O)O)cc2)ccc1C(=O)N1CCC2(CC1)CC(=O)c1c(cnn1C(C)C)C2` [Example 25, 4-{6-(isopropylamino)-5-[(1-isopropyl-7-oxo-1,4,6,7-tetrahydro-1′H-spiro[indazole-5,4′-piperidin]-1′-yl)carbonyl]pyridin-2-yl}benzoic acid], the values for the pIC50 in assay [1] and in assay [2] were 6.22 and 6.69, respectively.

With `CC(C)n1ncc2c1C(=O)CC1(CCN(C(=O)c3cc4c(-c5ccc(C(=O)O)cc5)cccc4[nH]3)CC1)C2` [Example 16, 4-{2-[(1-isopropyl-7-oxo-1,4,6,7-tetrahydro-1′H-spiro[indazole-5,4′-piperidin]-1′-yl)carbonyl]-1H-indol-4-yl}benzoic acid], the results for the pIC50 in assay [1] and in assay [2] were 8.01 and 7.94, respectively.

For the molecule `CC(C)n1ncc2c1C(=O)CC1(CCN(C(=O)c3cc(-c4ccc(C(=O)O)cc4)[nH]c(=O)c3)CC1)C2` [Example 27, 4-{4-[(1-isopropyl-7-oxo-1,4,6,7-tetrahydro-1′H-spiro[indazole-5,4′-piperidin]-1′-yl)carbonyl]-6-oxo-1,6-dihydropyridin-2-yl}benzoic acid], the pIC50 is 5.54 in assay [1] and 5.94 in assay [2].

Values taken from patent publication US11673890B2, “N1-pyrazolospiroketone acetyl-CoA carboxylase inhibitors” (Pfizer Inc., priority 2010, dated 2023).
